In patent US11077167B2, “Agent for promoting skeletal muscle injury repair” (Osaka University, priority 2017, dated 2021):

Tested on: angiogenesis
Experiment: Angiogenic activity
Conditions: truncated peptides compared with SVVYGLR; confirmed by the present inventors, no method given

Substance	angiogenic activity
SVVYGL	retain the angiogenic activity of SVVYGLR
VVYGLR	retain the angiogenic activity of SVVYGLR
